Measured values as given in patent US20220033448A1, “METHODS FOR AGGREGATION OF PROTEINS” (priority 2011, published 2022).
No end group written: not given here.

Experiments:
[1] = system: bacterial cells; experiment: Membrane potential (BacLight kit, DiOC2 red/green fluorescence); format: cell-based; settings: 25 μg/ml; after 5 minutes
[2] = system: Nocardia asteroides; settings: Nocardia asteroides ATCC 3308; planktonic; 18 hours
Protocol: Bacteria were grown in a shaking incubator at 37° C. and 160rpm in 50 ml BHI , using individual colonies retrieved from a fresh overnight TSA-sheep blood plate. The cultures were grown to a density of approximately 1×10^8cells/ml and then diluted to 5×10^5 cells/ml in CAMHB (Mc Farland 0.5). Each well contained 100p.I (50p.I of peptide containing MHB plus 50 μl inoculum). The final cell density was 1×10^5 to 5×10^5/ml. After addition of the cell suspension, plates were incubated at 37° C. for 18 to 24 hours. The optical density at 590 nm (OD590) of each well was measured after 5 seconds of shaking the plate using Perkin Elmer spectrophotometer (1420 Multilabel Counter Vicotr 3). […] Each well, where no growth was observed, was also plated on TSA-sheep blood agar plates, incubated at 37° C. overnight and visually inspected.
A microbroth dilution method was used with twofold serial dilutions in CAMHB (according to EMEA guidelines) was used for screening of peptide activity, with concentrations ranging from 0.3 μg/mIto 200 μg/ml.

[3] = system: S. aureus MRSA 326; experiment: Neutropenic-mouse thigh model; settings: neutropenic mice; bolus i.v. dose of 15 mg/kg 2 h after inoculation; sacrificed 4 hours post-infection
[4] = system: Candida albicans SC5314; experiment: In vitro mature C. albicans biofilm formation on polystyrene (XTT reduction assay); format: cell-based; settings: 250 μM, 50 μM and 10 μM; peptide during adhesion only or during whole biofilm development; p<0.001
Protocol: The initial screening and search for optimal Als3 candidate interferors was based on the C. albicans SC5314 adhesion assay on 96-well polystyrene plates upon administration of all the peptides at three different concentrations (250 μM, 50 μM and 10 μM). Based on the results obtained with this adhesion assay, we also tested the effect of peptides on mature biofilm development. The final election of the most optimal candidate interferor peptides was based on the results showing reduction in adhesion and mature biofilm formation caused by the lowest concentration of the peptide tested (10 μM or 2.5 μM).
In a next step, lower concentrations of peptide F9 (50 μM, 10 μM and 2.5 μM) were also tested. […] Both assays were performed in 96-well polystyrene plates and quantified by the XTT reduction assay (see material and methods section).
In vitro C. albicans biofilm was studied on three different types of biomaterials, namely flat bottom 96-well polystyrene plate (Greiner Bio-One, Germany), silicone (CS Hyde, USA) and polyurethane triple lumen intravenous catheters (2.4mm diameter) (Arrow International Reading, USA). […] After that, the biofilms were washed twice with 1×PBS and quantified.
The metabolic activity of Candida cells within in vitro biofilms was studied using the XTT reduction assay. […] The intensity of colorimetric change was measured by spectrophotometer (Spectra max Plus 384) at 490 nm. […]

[5] = system: Candida albicans SC5314; experiment: In vivo subcutaneous C. albicans biofilm model in rats (polyurethane catheters, CFU)
Protocol: In a next step we also investigated a potential inhibitory role of interferor peptide F9 during in vivo C. albicans biofilm development. We used the in vivo subcutaneous C. albicans biofilm model in rats (i.e. in vivo biofilms formed inside polyurethane triple lumen catheter pieces) as further outlined in the materials and methods section. Only one concentration of peptide F9 (i.e. 50 μM) was tested in the experimental conditions. The peptide was administrated ex vivo, during initial attachment of Candida to the substrate (90 min, 37° C.). Afterwards, the catheters were washed and implanted subcutaneously in rats. Biofilms were studied six days post implantation and quantified by CFUs. […]
Polyurethane triple lumen intravenous catheters (2.4 mm diameter) cut into segments of 1 cm (Arrow International Reading, USA) were incubated overnight in FBS at 37° C. […] The skin was disinfected and catheter fragments were removed from under the subcutaneous tissue, washed twice with 1× PBS and quantified or visualized.The effect of peptides promoting the aggregation of Als3p during Candida biofilm development in vivo was characterized, as well. […]
The amount of fungal biofilm biomass formed inside the catheter lumen of in vitro and in vivo explanted catheters was determined by colony forming units (CFU). […] CFUs were counted after two days at 37° C.

Sequence | membrane potential (MP) change [1] | MIC [2] | reduction of expansion of initial inoculum [3] [Log10 CFU/ml] | biofilm formation (metabolic activity compared to control) [4] | mean CFUs ±SD obtained per catheter fragment ([5]; 50 μM ex vivo during adhesion (90 min, 37° C.), catheters implanted subcutaneously in rats, six days post implantation, control 3.69 ±0.42) | peptide-treated catheters containing less than 2.0 log10 CFU/catheter fragment ([5]; four out of 20 catheters, 50 μM, rats, six days) [%]
RILLGLIRRGSRILLGLIRR [C30] | full depolarization of the MP | Nocardia asteroides ATCC 3308: 1.5 μg/ml | 6.9 |  |  | 
RKLLFNLGSRNGIVIVATTR [F9] |  |  |  | significant reduction in biofilm formation | 2.25 ±1.08 login CFU/catheter fragment | 20
